Literature values in patent US7432380B2, “Crystalline form of Fluvastatin sodium” (Ciba Specialty Chemicals Corp., priority 2003, dated 2008).

Conditions: relative air humidity of surrounding atmosphere; from WO-A-03/13512

CC(C)n1c(/C=C/[C@H](O)C[C@H](O)CC(=O)[O-])c(-c2ccc(F)cc2)c2ccccc21.[Na+] [Form F]
air humidity of atmospheres in which the form is stable: up to 90%
